Data reported in patent US9573964B2, “Oxygen linked pyrimidine derivatives” (CTI BIOPHARMA CORP., priority 2005, dated 2017).

Columns and labels:
CDK2/CyclinA = target: T1, CDK2/CyclinA (Homo sapiens, UniProt P24941); experiment: In vitro kinase activity assay (PKLight), CDK2/Cyclin A; format: biochemical; conditions: 0.5 μM ATP
T1 construct: purchased Invitrogen PV3267
Method: (§1) The recombinant enzymes (CDK2/CyclinA, FLT3, JAK2 and JAK2 V617F) were purchased from Invitrogen (Cat #PV3267, 3182, 4210 and 4347 respectively). All assays were carried out in 384-well white microtiter plates using the PKLight assay system from Cambrex (East Rutherford, N.J.). This assay platform is essentially a luminometric assay for the detection of ATP in the reaction using a luciferase-coupled reaction. For CDK2/Cyclin A assay, the reaction mixture consisted of the following components in 25 μL assay buffer (50 mM Hepes pH 7.5, 10 mM MgCl2, 5 mM MnCl2, 5 mM BGP, 1 mM DTT, 0.1 mM sodium orthovanadate), 1.4 μg/mL of CDK2/Cyclin A complex, 0.5 μM of RbING substrate (Invitrogen, Cat #PV2939) and 0.5 μM of ATP. The compounds were tested at 8 concentrations prepared from 4-fold serial dilution starting at 10 μM. The reaction was incubated at room temperature for 2 hr. 13 μL of PKLight ATP detection reagent was added and the reaction was incubated for 10 min. Luminescence signals were detected on a multi-label plate reader (Victor^2 V 1420, Perkin-Elmer). The other kinase assays were identical except for the following differences in reagents. For FLT3 assays, the reaction contained 2.0 μg/mL FLT3 enzyme, 5 μM of poly(Glu,Tyr) substrate (Sigma, Cat #P0275) and 4 μM of ATP. For JAK2 assays, the reaction contained 0.6 μg/mL of JAK2 enzyme, 2 μM of poly(Glu,Ala,Tyr) substrate (Sigma, Cat #P3899) and 0.2 μM of ATP. For JAK2 V617F mutant assays, the reaction contained 8.0 μg/mL of JAK2 mutant enzyme, 2 μM of poly(Glu,Ala,Tyr) substrate (Sigma, Cat #P3899) and 0.2 μM of ATP. The analytical software, Prism 4.0 (GraphPad Software Pte Ltd) was used to generate IC50 values from the data.

FLT3 = target: T2, FLT3 (Homo sapiens, UniProt P36888); experiment: In vitro kinase activity assay (PKLight), FLT3; format: biochemical
T2 construct: purchased Invitrogen PV3182
T2 sequence (P36888 27-993): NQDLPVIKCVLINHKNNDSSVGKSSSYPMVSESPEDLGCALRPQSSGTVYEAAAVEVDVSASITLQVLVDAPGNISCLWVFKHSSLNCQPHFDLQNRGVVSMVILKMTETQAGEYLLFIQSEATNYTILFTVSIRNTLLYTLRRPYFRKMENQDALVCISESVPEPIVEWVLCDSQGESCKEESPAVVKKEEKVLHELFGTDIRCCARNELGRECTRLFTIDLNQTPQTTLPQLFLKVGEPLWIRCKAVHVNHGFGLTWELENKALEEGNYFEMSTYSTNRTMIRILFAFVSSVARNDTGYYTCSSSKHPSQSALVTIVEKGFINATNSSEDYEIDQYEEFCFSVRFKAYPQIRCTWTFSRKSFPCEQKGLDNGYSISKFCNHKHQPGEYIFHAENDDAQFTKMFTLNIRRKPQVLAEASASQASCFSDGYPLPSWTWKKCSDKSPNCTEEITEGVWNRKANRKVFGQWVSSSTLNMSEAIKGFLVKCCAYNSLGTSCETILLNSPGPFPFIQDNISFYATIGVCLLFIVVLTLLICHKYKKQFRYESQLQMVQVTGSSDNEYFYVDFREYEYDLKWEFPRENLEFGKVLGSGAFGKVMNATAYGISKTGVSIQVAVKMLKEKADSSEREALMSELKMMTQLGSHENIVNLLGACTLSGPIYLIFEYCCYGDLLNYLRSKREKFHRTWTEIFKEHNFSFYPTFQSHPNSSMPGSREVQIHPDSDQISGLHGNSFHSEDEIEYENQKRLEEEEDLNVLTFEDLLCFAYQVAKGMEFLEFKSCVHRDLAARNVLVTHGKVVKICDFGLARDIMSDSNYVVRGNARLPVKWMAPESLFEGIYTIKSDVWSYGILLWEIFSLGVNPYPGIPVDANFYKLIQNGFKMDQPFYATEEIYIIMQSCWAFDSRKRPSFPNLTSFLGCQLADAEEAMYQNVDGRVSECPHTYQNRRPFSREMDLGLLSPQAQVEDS
Method: as §1, with “All” for “The recombinant enzymes (CDK2/CyclinA, FLT3, JAK2 and JAK2 V617F) were purchased from Invitrogen (Cat #PV3267, 3182, 4210 and 4347 respectively). All”, “For JAK2 V617F mutant assays, the reaction contained 8.0 μg/mL of JAK2 mutant enzyme, 2 μM of poly(Glu,Ala,Tyr) substrate (Sigma, Cat #P3899) and 0.2 μM of ATP.” left out

JAK2 = target: T3, JAK2 (Homo sapiens, UniProt O60674); experiment: In vitro kinase activity assay (PKLight), JAK2; format: biochemical
T3 construct: purchased Invitrogen PV4210
Method: as §1, with “All” for “The recombinant enzymes (CDK2/CyclinA, FLT3, JAK2 and JAK2 V617F) were purchased from Invitrogen (Cat #PV3267, 3182, 4210 and 4347 respectively). All”, “For JAK2 V617F mutant assays, the reaction contained 8.0 μg/mL of JAK2 mutant enzyme, 2 μM of poly(Glu,Ala,Tyr) substrate (Sigma, Cat #P3899) and 0.2 μM of ATP.” left out

JAK2 V617F = target: T4, JAK2 V617F (Homo sapiens, UniProt O60674, V617F); experiment: In vitro kinase activity assay (PKLight), JAK2 V617F mutant; format: biochemical
T4 construct: purchased Invitrogen PV4347
Method: as §1, with “All” for “The recombinant enzymes (CDK2/CyclinA, FLT3, JAK2 and JAK2 V617F) were purchased from Invitrogen (Cat #PV3267, 3182, 4210 and 4347 respectively). All”, “For JAK2 V617F mutant assays, the reaction contained 8.0 μg/mL of JAK2 mutant enzyme, 2 μM of poly(Glu,Ala,Tyr) substrate (Sigma, Cat #P3899) and 0.2 μM of ATP.” left out

[1] = tested on: HL60 (acute myeloid leukemia cell line); experiment: Cell-based proliferation assay for GI50, HL60; conditions: Homo sapiens, HL-60; HL60 cells, 96 h treatment
Method: (§2) Human cancer cell lines HL60 (acute myeloid leukemia cell line), Colo205 (colon adenocarcinoma cell line), HEL92.1.7 (erythroleukemia cell line) and MV4-11 (acute myeloid leukemia cell line) were obtained from ATCC. They were cultivated in the media according to the ATCC work instructions. Colo205 cells were seeded in 96-wells plate at 5000 cells per well. HEL92.1.7 and MV4-11 cells were seeded at 6000 cells per well while HL60 cells were seeded at 8000 cells per well in 96 well plate. The plates were incubated at 37° C., 5% CO2, for 24 h. Cells were treated with compounds at various concentrations for 96 h. Cell growth was then monitored using Celltiter96 Aqueous One Solution Cell Proliferation Assay from Promega (Madison Wis.). Dose response curves were plotted to determine GI50 values for the compounds using XL-fit (ID Business Solution, Emeryville, Calif.).

[2] = tested on: Colo205 (colon adenocarcinoma cell line); experiment: Cell-based proliferation assay for GI50, Colo205; conditions: Homo sapiens, COLO 205; Colo205 cells, 96 h treatment
Method: as §2

[3] = tested on: HEL92.1.7 (erythroleukemia cell line); experiment: Cell-based proliferation assay for GI50, HEL92.1.7; conditions: Homo sapiens, HEL 92.1.7; HEL92.1.7 cells, 96 h treatment
Method: as §2

[4] = tested on: MV4-11 (acute myeloid leukemia cell line); experiment: Cell-based proliferation assay for GI50, MV4-11; conditions: Homo sapiens; MV4-11 cells, 96 h treatment
Method: as §2

T4 sequence (O60674 whole entry V617F): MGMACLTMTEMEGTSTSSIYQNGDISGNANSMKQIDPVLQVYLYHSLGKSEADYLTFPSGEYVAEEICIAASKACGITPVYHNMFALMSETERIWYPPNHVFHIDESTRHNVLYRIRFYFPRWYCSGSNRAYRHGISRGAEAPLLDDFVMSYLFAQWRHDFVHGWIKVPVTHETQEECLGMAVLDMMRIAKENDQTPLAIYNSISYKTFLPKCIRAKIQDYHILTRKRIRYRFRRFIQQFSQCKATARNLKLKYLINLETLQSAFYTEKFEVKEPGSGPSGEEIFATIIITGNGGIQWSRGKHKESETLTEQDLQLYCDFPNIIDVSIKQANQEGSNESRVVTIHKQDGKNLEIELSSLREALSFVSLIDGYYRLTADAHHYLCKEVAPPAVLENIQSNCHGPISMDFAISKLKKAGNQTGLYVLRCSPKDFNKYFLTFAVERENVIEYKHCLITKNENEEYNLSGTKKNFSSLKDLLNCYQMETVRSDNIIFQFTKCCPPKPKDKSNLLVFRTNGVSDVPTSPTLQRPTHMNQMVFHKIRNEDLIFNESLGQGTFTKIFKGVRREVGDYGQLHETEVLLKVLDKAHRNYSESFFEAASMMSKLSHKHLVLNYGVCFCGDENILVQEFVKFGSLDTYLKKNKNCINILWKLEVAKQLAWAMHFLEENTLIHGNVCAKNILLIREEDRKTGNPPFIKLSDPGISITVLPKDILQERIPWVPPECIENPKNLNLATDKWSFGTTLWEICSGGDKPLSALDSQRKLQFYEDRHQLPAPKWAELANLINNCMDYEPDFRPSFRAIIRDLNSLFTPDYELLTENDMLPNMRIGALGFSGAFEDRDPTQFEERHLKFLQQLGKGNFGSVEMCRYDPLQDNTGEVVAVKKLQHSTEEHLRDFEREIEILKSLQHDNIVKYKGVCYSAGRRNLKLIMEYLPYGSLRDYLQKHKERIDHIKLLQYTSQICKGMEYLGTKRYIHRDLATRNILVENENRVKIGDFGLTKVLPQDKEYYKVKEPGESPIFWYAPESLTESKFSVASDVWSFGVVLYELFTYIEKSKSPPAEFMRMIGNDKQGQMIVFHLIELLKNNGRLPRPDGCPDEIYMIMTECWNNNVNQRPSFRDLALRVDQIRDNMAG
T3 sequence (O60674 whole entry): as the sequence (O60674 whole entry V617F) above, with F617V counted along it

IC50 (CDK2/CyclinA): 1000 to 5000 nM
IC50 (FLT3): ≤ 1000 nM
IC50 (JAK2): ≤ 1000 nM
IC50 (JAK2 V617F): ≤ 1000 nM
GI50 [1]: ≤ 1000 nM
GI50 [2]: 1000 to 5000 nM
GI50 [3]: 1000 to 5000 nM
GI50 [4]: ≤ 1000 nM
Structure (SMILES): CCN(CC)CCOc1ccc2cc1COC/C=C/COCc1cccc(c1)-c1ccnc(n1)N2 [Compound 15]
